GI50 and TGI data for 14 compounds are collected here from PubChem BioAssay (NCI).

Among the test systems are OVCAR-5 ovarian; HCC-2998 colon; HOP-92 NSCLC; NCI-H522 lung; 786-0 renal; UO-31 renal; HCT-15 colon; M14 melanoma; MALME-3M melanoma; SF-539 CNS.
Holding throughout (test): growth of human tumour cells (NCI), 48 h

Several values for one entry are separate records, joined by “and”; a condition that tells them apart may be missing. Equal values may be shown once.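 The compound was tested at five concentrations on cells cultured in 96-well plates, with a 48-hour exposure period. The concentration for 50% growth inhibition is given as GI50. TGI: concentration producing complete growth inhibition.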

Turning to `COc1ccc(-c2nn(-c3cccc(NC(=O)c4cccc(C(F)(F)F)c4)c3)cc2-c2ccncc2)cc1Cl`, the GI50 is 12.2 µM in the assay with OVCAR-5 ovarian; 3.29 µM with HCC-2998 colon; 1 µM in the assay with HOP-92 NSCLC; 0.475 µM with NCI-H522 lung; 2.91 µM with 786-0 renal; 2.85 µM with UO-31 renal. The GI50 in the assay with HCT-15 colon is 2 µM; with M14 melanoma it was 2.23 µM; in the assay with MALME-3M melanoma, 1.46 µM; in the assay with SF-539 CNS, 1.77 µM. Moreover, the TGI in the assay on OVCAR-5 ovarian is over 100 µM; in the assay with HCC-2998 colon it was 17 µM; in the assay on HOP-92 NSCLC, 6.54 µM; in the assay with NCI-H522 lung, 3.55 µM; with 786-0 renal it was 27.5 µM; with UO-31 renal, over 100 µM. For the same compound, the TGI was over 100 µM in the assay with HCT-15 colon, 25.3 µM with M14 melanoma, over 100 µM with MALME-3M melanoma and 6.01 µM with SF-539 CNS.
`COc1nc(N)nc2c1ncn2[C@@H]1O[C@H](CO)[C@@H](O)[C@@H]1O`: the GI50 in the assay on OVCAR-5 ovarian, with HCC-2998 colon, with HOP-92 NSCLC, with NCI-H522 lung, in the assay on 786-0 renal and with UO-31 renal was over 100 µM throughout. For the same compound, the GI50 in the assay with HCT-15 colon, in the assay on M14 melanoma, with MALME-3M melanoma and in the assay on SF-539 CNS was over 100 µM in each case. The TGI in the assay on OVCAR-5 ovarian, with HCC-2998 colon, in the assay with HOP-92 NSCLC, in the assay on NCI-H522 lung, with 786-0 renal and with UO-31 renal was over 100 µM each time. For the same compound, the TGI with HCT-15 colon, in the assay on M14 melanoma, in the assay on MALME-3M melanoma and in the assay on SF-539 CNS was over 100 µM in each case.
With `CCCc1nc(NC#N)nc(C(=O)NC23CC4CC(CC(C4)C2)C3)c1C`, the TGI in the assay on OVCAR-5 ovarian, in the assay with HCC-2998 colon, in the assay with HOP-92 NSCLC, in the assay on NCI-H522 lung, in the assay with 786-0 renal and in the assay on UO-31 renal was over 100 µM throughout. In addition, the TGI in the assay with HCT-15 colon, in the assay with M14 melanoma, with MALME-3M melanoma and in the assay with SF-539 CNS was over 100 µM each time.
Turning to `CN(C)C1=NC2=S(SC(Nc3ccccc3)=N2)S1` (centres undefined), the TGI in the assay with OVCAR-5 ovarian was over 100 µM; with HCC-2998 colon, over 100 µM; in the assay on HOP-92 NSCLC it was 59.8 µM; with NCI-H522 lung, 60.2 µM; in the assay with 786-0 renal, over 100 µM; with UO-31 renal it was 61.1 µM. The TGI is over 100 µM with HCT-15 colon, over 100 µM in the assay on M14 melanoma, 46.5 µM with MALME-3M melanoma and 60.6 µM with SF-539 CNS.
As to `O=C1CCC(N2Cc3c(C#CCCCNC(=O)c4cc5c(o4)C(=O)c4ccccc4C5=O)cccc3C2=O)C(=O)N1` (centres undefined), the GI50 in the assay with OVCAR-5 ovarian is 15.6 µM; in the assay with HCC-2998 colon, 2.63 µM; in the assay on HOP-92 NSCLC, 9.07 µM; in the assay with NCI-H522 lung it was 1.98 µM; with 786-0 renal it was 15.3 µM; with UO-31 renal, 14 µM. Besides, the GI50 in the assay with HCT-15 colon was 16.4 µM; in the assay with M14 melanoma it was 1.85 µM; in the assay with MALME-3M melanoma it was 0.988 µM; in the assay with SF-539 CNS, 2.27 µM. For the same compound, the TGI with OVCAR-5 ovarian came out at 29.7 µM; in the assay with HCC-2998 colon, 6.63 µM; in the assay on HOP-92 NSCLC it was 26 µM; in the assay on NCI-H522 lung it was 4.61 µM; with 786-0 renal, 32 µM; with UO-31 renal, 36.1 µM. Besides, the TGI in the assay with HCT-15 colon stood at 45.4 µM; in the assay with M14 melanoma, 3.59 µM; in the assay with MALME-3M melanoma, 2.19 µM; with SF-539 CNS it was 5.26 µM.
Take `CSc1nc(C)c(Br)c(=O)n1C1OC(COC(C)=O)C(OC(C)=O)C(OC(C)=O)C1OC(C)=O` (centres undefined): the TGI in the assay with OVCAR-5 ovarian is over 100 µM; in the assay on HCC-2998 colon, over 100 µM; with HOP-92 NSCLC it was 54.8 µM and 58.1 µM; with NCI-H522 lung, over 100 µM; in the assay with 786-0 renal it was > 100 µM and 48.5 µM; in the assay on UO-31 renal, over 100 µM. For the same compound, the TGI in the assay with HCT-15 colon was over 100 µM; in the assay on M14 melanoma, over 100 µM; with MALME-3M melanoma, > 100 µM and 70.4 µM; in the assay with SF-539 CNS, > 80.2 µM and 34.4 µM. The GI50 is > 100 µM and 30.9 µM with NCI-H522 lung; 74 µM and 26.3 µM in the assay on 786-0 renal; > 100 µM and 44.9 µM with UO-31 renal; > 100 µM and 33.4 µM with MALME-3M melanoma; > 52.8 µM and 18.6 µM with SF-539 CNS.
As for `O=C(Nc1ccc(OCc2nnc(-c3ccccc3)o2)c(F)c1)Nc1ccc(Cl)c(C(F)(F)F)c1`, the GI50 with OVCAR-5 ovarian is 7.56 µM; in the assay on HCC-2998 colon, 2.58 µM; in the assay on HOP-92 NSCLC it was 1.78 µM; in the assay with NCI-H522 lung, 1.51 µM; with 786-0 renal it was 2.11 µM; in the assay with UO-31 renal, 1.49 µM. The GI50 in the assay with HCT-15 colon is 2.28 µM; with M14 melanoma, 2.97 µM; with MALME-3M melanoma it was 1.78 µM; with SF-539 CNS it was 2.41 µM. Further, the TGI is over 100 µM in the assay with OVCAR-5 ovarian; 7.83 µM in the assay with HCC-2998 colon; 5.17 µM in the assay on HOP-92 NSCLC; 4.87 µM in the assay on NCI-H522 lung; 4.21 µM with 786-0 renal; 2.93 µM with UO-31 renal. Further, the TGI in the assay with HCT-15 colon worked out at 14.8 µM; with M14 melanoma it was 47 µM; in the assay on MALME-3M melanoma, 4.98 µM; in the assay with SF-539 CNS it was 13 µM.
In the case of `C/C(=C\CCc1ccsc1)CC/C=C(\C)CCCN1CCC(CO)CC1`, the GI50 with OVCAR-5 ovarian was 2.77 µM; with HCC-2998 colon it was 1.97 µM; with HOP-92 NSCLC, 1.02 µM; in the assay on NCI-H522 lung it was 1.9 µM; with 786-0 renal, 1.77 µM; in the assay on UO-31 renal, 2.83 µM. The GI50 was 1.86 µM in the assay with HCT-15 colon, 1.92 µM in the assay with M14 melanoma, 1.71 µM with MALME-3M melanoma and 1.69 µM with SF-539 CNS. Besides, the TGI turned out to be 11.6 µM with OVCAR-5 ovarian; 3.77 µM in the assay with HCC-2998 colon; 3.69 µM in the assay with HOP-92 NSCLC; 3.74 µM in the assay with NCI-H522 lung; 3.36 µM in the assay on 786-0 renal; 16 µM in the assay on UO-31 renal. The TGI in the assay with HCT-15 colon is 4.01 µM; in the assay on M14 melanoma it was 3.73 µM; in the assay with MALME-3M melanoma it was 3.37 µM; in the assay with SF-539 CNS, 3.36 µM.
Regarding `S=C(c1ccc2c(c1)OCO2)N1CCN(c2cccc(Cl)c2)CC1`, the GI50 with OVCAR-5 ovarian is 7.69 µM; with HCC-2998 colon, 1.27 µM; in the assay with HOP-92 NSCLC it was 95.4 µM; in the assay on NCI-H522 lung it was 0.382 µM; in the assay with 786-0 renal, 1.22 µM; in the assay with UO-31 renal, 4.3 µM. Besides, the GI50 is 0.524 µM with HCT-15 colon, 0.472 µM in the assay on M14 melanoma, 0.478 µM in the assay with MALME-3M melanoma and 1.1 µM in the assay on SF-539 CNS. The TGI is over 100 µM with OVCAR-5 ovarian; 16.4 µM with HCC-2998 colon; over 100 µM with HOP-92 NSCLC; over 59.6 µM in the assay on 786-0 renal; over 72.5 µM in the assay on UO-31 renal; over 69.3 µM with HCT-15 colon. For the same compound, the TGI with M14 melanoma is over 100 µM; in the assay with MALME-3M melanoma, over 100 µM; in the assay with SF-539 CNS, 8.13 µM.
As for `O=C1c2cc([N+](=O)[O-])cc3cc([N+](=O)[O-])cc(c23)C(=O)N1CCCNCCNCCCN1C(=O)c2cc([N+](=O)[O-])cc3cc([N+](=O)[O-])cc(c23)C1=O`, the TGI was determined as 6.68 µM in the assay on OVCAR-5 ovarian; 1.51 µM in the assay on HCC-2998 colon; 1.82 µM in the assay on HOP-92 NSCLC; 1.13 µM in the assay on NCI-H522 lung; 3.35 µM in the assay on 786-0 renal; 3.35 µM in the assay with UO-31 renal. For the same compound, the TGI in the assay on HCT-15 colon is over 30.6 µM; in the assay with M14 melanoma, 3.31 µM; in the assay on MALME-3M melanoma, 1.33 µM; with SF-539 CNS, 1.26 µM.
For `CC(C)NC(=O)OCc1c(COC(=O)NC(C)C)c(-c2ccc(Cl)c(Cl)c2)n2c1CCC2`, the TGI in the assay with OVCAR-5 ovarian is 64.1 µM; with HCC-2998 colon, 61.2 µM; in the assay with HOP-92 NSCLC, 52.2 µM; in the assay on NCI-H522 lung, over 74.4 µM; in the assay with 786-0 renal, 44.5 µM; with UO-31 renal, 63.5 µM. Further, the TGI in the assay on HCT-15 colon stood at 71.3 µM; in the assay with M14 melanoma it was 55.5 µM; with MALME-3M melanoma it was 70.8 µM; in the assay with SF-539 CNS, 65.4 µM.
Turning to `OCC1OC(n2cnc3c2NC=NC[C@H]3O)CC1O` (some centres undefined), the GI50 with OVCAR-5 ovarian, in the assay with HCC-2998 colon, in the assay on HOP-92 NSCLC, in the assay with NCI-H522 lung, with 786-0 renal and in the assay with UO-31 renal was over 588 µM throughout. Moreover, the GI50 was over 588 µM with HCT-15 colon; over 588 µM in the assay with M14 melanoma; over 588 µM in the assay on MALME-3M melanoma; 405 µM and > 588 µM with SF-539 CNS. Besides, the TGI in the assay on OVCAR-5 ovarian was over 588 µM; in the assay on HCC-2998 colon, 402 µM and > 588 µM; in the assay with HOP-92 NSCLC, 454 µM and > 588 µM; in the assay with NCI-H522 lung, 500 µM and > 588 µM; in the assay with 786-0 renal, 500 µM and > 588 µM; in the assay on UO-31 renal, 500 µM and > 588 µM. For the same compound, the TGI is 500 µM and > 588 µM with HCT-15 colon; 500 µM and > 588 µM in the assay with M14 melanoma; 471 µM and > 588 µM in the assay with MALME-3M melanoma; 461 µM and > 588 µM with SF-539 CNS.
Take `CC1=NC(C(C)C)C(=O)O1` (centres undefined): the TGI in the assay with OVCAR-5 ovarian, in the assay on HCC-2998 colon, in the assay on HOP-92 NSCLC, in the assay on NCI-H522 lung, with 786-0 renal and with UO-31 renal was over 100 µM each time. In addition, the TGI with HCT-15 colon, in the assay on M14 melanoma, in the assay with MALME-3M melanoma and in the assay with SF-539 CNS was over 100 µM each time.
`CC1=CC(=O)c2c(C=O)c(O)c(O)c(C(C)C)c2C1=O`: the TGI is over 92.2 µM in the assay on OVCAR-5 ovarian; over 94.5 µM with HCC-2998 colon; 45.5 µM with HOP-92 NSCLC; 32.4 µM in the assay with NCI-H522 lung; 45.5 µM in the assay with 786-0 renal; over 56.8 µM in the assay with UO-31 renal. In addition, the TGI in the assay with HCT-15 colon was over 100 µM; in the assay with M14 melanoma, over 100 µM; in the assay on MALME-3M melanoma it was 68.2 µM; with SF-539 CNS, 58.4 µM.
